Test results published in patent US8026257B2 (Bristol-Myers Squibb Company, priority 2007, dated 2011).
Counter-ions that a name gives are not always drawn.

What was measured:
NK-1 = molecular target: T1, NK-1 (Homo sapiens, UniProt P25103); test: NK1 radioligand binding assay ([125I]Substance P, U373 membranes); settings: U373 cell membranes, 200 pM [125I]Substance P, 1 hour at room temperature
T1 construct: 30 ul/well of a 2×U373 membrane preparation
Experimental: (§1) NK-1 Binding assay. Crude membrane suspensions were prepared for the NK1 and SERT radioligand binding assays from U373 cells or recombinant HEK-293 cells expressing hSERT, respectively. Cells were harvested from T-175 flasks as follows. The medium is removed from the flasks and the cells rinsed with HBSS without Ca and without Mg. The cells are then incubated for 5-10 minutes in 10 mM Tris-Cl, pH 7.5, 5 mM EDTA before the cells are lifted with a combination of pipetting and scraping, as needed. To prepare membranes, the cell suspension is collected into centrifuge bottles and homogenized for 30 seconds with a Polytron homogenizer. The suspension is centrifuged for 30 min@32,000×g, 4° C., then the supernatant is decanted and the pellet resuspended and homogenized in 50 mM Tris-Cl, pH 7.5, 1 mM EDTA for 10 seconds. The suspension is then centrifuged again for 30 min@32,000×g, 4° C. The supernatant is decanted and the pellet resuspended in 50 mM Tris-Cl, pH 7.5, 1 mM EDTA and briefly homogenized. A Bradford assay (Bio-rad) is performed and the membrane preparation diluted to 2 mg/ml with 50 mM Tris-Cl, pH 7.5, 1 mM EDTA. Aliquots are prepared, and then frozen and stored at −80° C.
NK1 radioligand binding assay. Compounds are dissolved in 100% DMSO at a concentration 100× the desired highest assay concentration, serially diluted 1:3 in 100% DMSO, and 0.6 ul/well of each solution is dispensed to a Nunc polypropylene, round bottom, 384 well plate. 100% inhibition is defined with 0.6 ul/well of 1 mM L-733,060 (Sigma L-137) dissolved in DMSO. 30 ul/well of a 2×U373 membrane preparation (267 ug/ml in 100 mM Tris-Cl, pH 7.5, 6 mM MgCl2, 0.2% (v/v) Sigma mammalian protease inhibitor cocktail (Sigma P-8340), and 4 ug/ml chymostatin, Sigma C-7268) and 30 ul/well of a 2× radioligand solution (400 pM [^125I]Substance P (Perkin ElmerNEX-190) in 1% (w/v) BSA (Sigma A-2153), 0.1 mg/ml bacitracin, Sigma B-0125) are added to the well and the reaction incubated for 1 hour at room temperature. The contents of the assay plate are then transferred to a Millipore MultiscreenHTS GF/B filter plate which has been pretreated with 0.5% PEI for at least one hour. The plate is vacuum filtered and washed with 7 washes of 100 ul/well of 20 mM Tris-Cl, pH 7.5, 0.5% (w/v) BSA chilled to 4° C. The filtration and washing is completed in less than 90 s. The plates are air-dried overnight, 12 ul/well of MicroScint scintillation fluid added, and the plates counted in a Trilux.
(§2) Data analysis. The raw data are normalized to percent inhibition using control wells defining 0% (DMSO only) and 100% (selective inhibitor) inhibition which are run on each plate. Each plate is run in triplicate, and the concentration response curve thus generated is fit using the four-parameter dose response equation, Y=Bottom+(Top-Bottom)/(1+10^((LogIC50−X)*HillSlope)) in order to determine the IC50 value for each compound. The radioligand concentration chosen for each assay corresponds to the Kd concentration determined through saturation binding analysis for each assay.

hSERT = hSERT (Homo sapiens, UniProt P31645); test: SERT radioligand binding assay ([125I]RTI-55, HEK-hSERT membranes); settings: HEK-293 hSERT membranes, 260 pM [125I]RTI-55, 1 hour at room temperature; read-out: SERT IC50
hSERT, sequence (P31645 whole entry): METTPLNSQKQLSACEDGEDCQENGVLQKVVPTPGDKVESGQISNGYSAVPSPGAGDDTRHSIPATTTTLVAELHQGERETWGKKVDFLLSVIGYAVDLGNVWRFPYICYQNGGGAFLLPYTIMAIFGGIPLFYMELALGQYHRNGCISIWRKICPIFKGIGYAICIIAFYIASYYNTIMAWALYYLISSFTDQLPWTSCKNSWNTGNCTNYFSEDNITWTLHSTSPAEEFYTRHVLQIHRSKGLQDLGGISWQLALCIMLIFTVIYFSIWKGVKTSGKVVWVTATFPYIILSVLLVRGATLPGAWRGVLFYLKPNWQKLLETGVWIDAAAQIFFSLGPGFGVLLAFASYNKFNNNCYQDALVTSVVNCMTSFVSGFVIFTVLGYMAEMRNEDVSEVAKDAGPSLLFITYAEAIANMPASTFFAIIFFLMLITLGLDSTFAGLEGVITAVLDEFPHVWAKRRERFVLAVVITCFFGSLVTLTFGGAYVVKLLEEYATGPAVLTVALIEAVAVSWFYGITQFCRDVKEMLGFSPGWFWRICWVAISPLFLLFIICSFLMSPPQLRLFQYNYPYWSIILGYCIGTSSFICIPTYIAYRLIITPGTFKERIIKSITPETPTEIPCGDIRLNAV
Experimental: as §1
SERT radioligand binding assay. Compounds are dissolved in 100% DMSO at a concentration 100× the desired highest assay concentration, serially diluted 1:3 in 100% DMSO, and 0.4 ul/well of each solution is dispensed to a Nunc polypropylene, round bottom, 384 well plate. 100% inhibition is defined with 0.4 ul/well of 1 mM fluoxetine (Sigma F-132) dissolved in DMSO. 20 ul/well of a 2× HEK-hSERT membrane preparation (15 ug/ml in 50 mM Tris-Cl, pH 7.5, 120 mM NaCl, 5mM KCl) and 20 ul/well of a 2× radioligand solution (520 pM [^125I]RTI-55 (Perkin-Elmer NEX-272) in 50 mM Tris-Cl, pH 7.5, 120 mM NaCl, 5mM KCl) are added to each well and the reaction incubated for 1 hour at room temperature. The contents of the assay plate are then transferred to a Millipore MultiscreenHTs GF/B filter plate which has been pretreated with 0.5% PEI for at least one hour. The plate is vacuum filtered and washed with 7 washes of 100 ul/well of 50 mM Tris-Cl, pH 7.5, 120 mM NaCl, 5 mM KCl chilled to 4° C. The filtration and washing is completed in less than 90 s. The plates are air-dried overnight, 12 ul/well of MicroScint scintillation fluid added, and the plates counted in a Trilux.
as §2

T1 sequence (P25103 whole entry): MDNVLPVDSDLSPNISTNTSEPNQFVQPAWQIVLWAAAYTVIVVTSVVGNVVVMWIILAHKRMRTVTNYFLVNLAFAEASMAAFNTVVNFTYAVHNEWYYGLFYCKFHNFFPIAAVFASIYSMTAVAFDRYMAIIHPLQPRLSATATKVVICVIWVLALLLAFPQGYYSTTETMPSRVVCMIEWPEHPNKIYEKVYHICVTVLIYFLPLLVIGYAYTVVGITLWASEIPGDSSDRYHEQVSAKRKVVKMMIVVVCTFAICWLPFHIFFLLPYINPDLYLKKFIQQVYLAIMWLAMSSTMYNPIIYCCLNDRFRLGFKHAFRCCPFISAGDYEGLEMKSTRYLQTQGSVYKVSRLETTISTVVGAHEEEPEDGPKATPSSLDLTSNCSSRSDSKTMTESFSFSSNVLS

SMILES | IC50 (NK-1) [nM] | IC50 (hSERT) [nM]
CCn1cnc2c([C@@H](C)OCC3(c4ccccc4)CCN(C)CC3)cc(C(F)(F)F)cc21 [Example 138, (R)-1-ethyl-4-(1-((1-methyl-4-phenylpiperidin-4-yl)methoxy)ethyl)-6-(trifluoromethyl)-1H-benzo[d]imidazole] | 0.01 to 100 | 0.01 to 100
CN1CCC(COC(CO)c2cc(Cl)cc3cn[nH]c23)(c2ccc(F)cc2)CC1 (stereo not drawn) [Example 92, 2-(5-Chloro-1H-indazol-7-yl)-2-((4-(4-fluorophenyl)-1-methylpiperidin-4-yl)methoxy)ethanol trifluoroacetic acid salt] | 0.01 to 100 | 0.01 to 100
CN1CCC(COCc2cc(C(F)(F)F)cc3cc[nH]c23)(c2ccc(F)cc2)CC1 [Example 68, 7-(((1-Methyl-4-(4-fluorophenyl)piperidin-4-yl)methoxy)methyl)-5-(trifluoromethyl)-1H-indole] | 0.01 to 100 | 0.01 to 100
CN1CCC(COC(C(=O)O)c2cc(Cl)cc3cn[nH]c23)(c2ccc(F)cc2)CC1 (stereo not drawn) [Example 90, 2-(5-Chloro-1H-indazol-7-yl)-2-((4-(4-fluorophenyl)-1-methylpiperidin-4-yl)methoxy)acetic acid trifluoroacetic acid salt] | > 300 | 0.01 to 100
CN1CCC(COC(c2cc(Cl)cc3cn[nH]c23)C(F)F)(c2ccc(F)cc2)CC1 (stereo not drawn) [Example 113, 5-chloro-7(2,2-difluoro-1-((4-(4-fluorophenyl)-1-methylpiperidin-4-yl)methoxy)ethyl)-1H-indazole] | 0.01 to 100 | 0.01 to 100
CC(OCC1(c2ccc(F)cc2)CCN(C)CC1)c1cc(C(F)(F)F)cc2cn(C)nc12 (single isomer, unassigned) [Example 29, 7-(1-((4-(4-Fluorophenyl)-1-methylpiperidin-4-yl)methoxy)ethyl)-2-methyl-5-(trifluoromethyl)-2H-indazole] | > 300 | 0.01 to 100
CN1CCC(COCc2cc(C(F)(F)F)cc3nn(C)nc23)(c2ccc(F)cc2)CC1 [Example 79, 4-(((4-(4-Fluorophenyl)-1-methylpiperidin-4-yl)methoxy)methyl)-2-methyl-6-(trifluoromethyl)-2H-benzo[d][1,2,3]triazole] | 0.01 to 100 | 0.01 to 100
CN1CCC(COCc2cc(C(F)(F)F)cc3cnn(C)c23)(c2ccc(F)cc2)CC1 [Example 19, 7-(((4-(4-Fluorophenyl)-1-methylpiperidin-4-yl)methoxy)methyl)-1-methyl-5-(trifluoromethyl)-1H-indazole] | 0.01 to 100 | 0.01 to 100
CC(OCC1(c2ccc(F)cc2)CCNCC1)c1cc(C(F)(F)F)cc2c1CC(=O)N2 (racemic) [Example 129, (±)-4-(1-((4-(4-fluorophenyl)piperidin-4-yl)methoxy)ethyl)-6-(trifluoromethyl)indolin-2-one, TFA] | 100 to 300 | 0.01 to 100
Fc1ccc(C2(COCc3cc(C(F)(F)F)cc4cn[nH]c34)CCNCC2)cc1 [Example 15, 7-(((4-(4-Fluorophenyl)piperidin-4-yl)methoxy)methyl)-5-(trifluoromethyl)-1H-indazole] | 0.01 to 100 | 0.01 to 100
CN1CCC(COCc2cc(Br)cc3ncn(CC4CC4)c23)(c2ccccc2)CC1 [Example 132] | 0.01 to 100 | 0.01 to 100
Cc1cc(C(C)OCC2(c3ccc(F)cc3)CCN(C)CC2)c2nn(CC(F)F)cc2c1 (racemic) [Example 61, (±)-2-(2,2-Difluoroethyl)-7-(1-((4-(4-fluorophenyl)-1-methylpiperidin-4-yl)methoxy)ethyl)-5-methyl-2H-indazole] | 0.01 to 100 | 0.01 to 100
CC(OCC1(c2ccc(F)cc2)CCN(C)CC1)c1cc(C(F)(F)F)cc2cnn(C)c12 (single isomer, unassigned) [Example 31, 7-(1-((4-(4-Fluorophenyl)-1-methylpiperidin-4-yl)methoxy)ethyl)-1-methyl-5-(trifluoromethyl)-1H-indazole] | 0.01 to 100 | 0.01 to 100
Cc1cc(COCC2(c3ccccc3)CCNCC2)c2nn(C)cc2c1 [Example 8, 2,5-Dimethyl-7-(((4-phenylpiperidin-4-yl)methoxy)methyl)-2H-indazole] | 0.01 to 100 | 0.01 to 100
CC(OCC1(c2ccccc2)CCN(C)CC1)c1cc(C(F)(F)F)cc2cc[nH]c12 (racemic) [Example 70, (±)-7-(1-((1-Methyl-4-phenylpiperidin-4-yl)methoxy)ethyl)-5-(trifluoromethyl)-1H-indole] | 0.01 to 100 | 100 to 300
Cn1ncc2cc(C(F)(F)F)cc(COCC3(c4ccc(F)cc4)CCNCC3)c21 [Example 17, 7-(((4-(4-Fluorophenyl)piperidin-4-yl)methoxy)methyl)-1-methyl-5-(trifluoromethyl)-1H-indazole] | 0.01 to 100 | 0.01 to 100
CC(OCC1(c2ccccc2)CCNCC1)c1cc(Cl)cc2cn[nH]c12 (racemic) [Example 38, (±)-5-Chloro-7-(1-((4-phenylpiperidin-4-yl)methoxy)ethyl)-1H-indazole] | 0.01 to 100 | 0.01 to 100
c1ccc(C2(COCc3cc(C4CC4)cc4cn[nH]c34)CCNCC2)cc1 [Example 45, 5-Cyclopropyl-7-(((4-phenylpiperidin-4-yl)methoxy)methyl)-1H-indazole] | 0.01 to 100 | 0.01 to 100
Cn1ncc2cc(C(F)(F)F)cc(COCC3(c4ccccc4)CCNCC3)c21 [Example 11, 1-Methyl-7-(((4-phenylpiperidin-4-yl)methoxy)methyl)-5-(trifluoromethyl)-1H-indazole] | 0.01 to 100 | 0.01 to 100
Cc1cc(COCC2(c3ccccc3)CCNCC2)c2c(cnn2C)c1 [Example 7, 1,5-Dimethyl-7-(((4-phenylpiperidin-4-yl)methoxy)methyl)-1H-indazole] | 0.01 to 100 | 0.01 to 100
CN1CCC(COCc2cc(C(F)(F)F)cc3cn[nH]c23)(c2ccccc2)CC1 [Example 10, 7-(((1-Methyl-4-phenylpiperidin-4-yl)methoxy)methyl)-5-(trifluoromethyl)-1H-indazole] | 0.01 to 100 | 0.01 to 100
C[C@@H](OCC1(c2ccc(F)cc2)CCN(C)CC1)c1cc(Cl)cc2cnn(CC#N)c12 [Example 108] | 0.01 to 100 | 0.01 to 100
CC(OCC1(c2ccc(F)cc2)CCN(C)CC1)c1cc(Cl)cc2[nH]c(=O)[nH]c12 (stereo not drawn) [Example 96, 6-Chloro-4-(1-((4-(4-fluorophenyl)-1-methylpiperidin-4-yl)methoxy)ethyl)-1H-benzo[d]imidazol-2(3H)-one trifluoroacetic acid salt] | 100 to 300 | 0.01 to 100
CCn1cnc2c(C(C)OCC3(c4ccc(F)cc4)CCN(C)CC3)cc(C(F)(F)F)cc21 (single isomer, unassigned) [Example 136] | 0.01 to 100 | 0.01 to 100
